# Reference: US9376700B2, “Methods of modifying N-termini of a peptide or protein using transferases” (The Trustees of the University of Pennsylvania, priority 2012, dated 2016)
# Tests used:
# Type in all cases: biochemical
# [1] = target: T1, E. coli aminoacyl tRNA transferase (AaT) (Escherichia coli, UniProt P0A8P1); experiment: α-Casein labeling in cleared E. coli cell lysate with unpurified AaT, then click reaction with FlAlk; conditions: fluorescence after labeling with FlAlk
# T1 construct: made in house; host or cells: E. coli BL21-Gold (DE3), plasmid pEG6, Ni-NTA purified
# Experimental: AaT was expressed in E. coli BL21-Gold (DE3) cells as previously described. A cleared cell lysate was obtained by centrifugation following cell lysis using sonication. Protein were modified in a final reaction volume of 110 μL with Azf-A (4c, 3 mM) using AaT (25 from cleared lysate in AaT buffer (50 mM HEPES pH 8.0, 150 mM KCl, 10 mM MgCl2). α-Casein (0.012 mg or 0.12 mg) was added to the reaction and incubated at 37° C. for 2 h, after 1 h an additional 0.3 μmole of 4c was added. For control reactions, equivalent volumes were replaced with water. Excess 4c was removed by buffer exchange four times against phosphate buffered saline (PBS, 12 mM NaH2PO4, 50 mM NaCl, 4.7 mM. KCl, pH 8.0) by Spectra/Por 1 dialysis tubing. Aliquots (18 μL) of 4c modified lysates were diluted to a final volume of 22 pit using PBS containing FlAlk (182 μM) for copper-catalyzed “click” reactions. The “click” reaction was initiated by addition of CuSO4 (100 μM), THPTA (500 μM), and sodium ascorbate (5 mM). The reaction mixtures were analyzed by PAGE gel using Coomassie staining and fluorescence as above.
# After AaT-catalyzed modification of α-casein with Azf, residual 4c was removed by dialysis. […] Azf transfer was successful, as shown by the observation of fluorescence after labeling with FlAlk.
# [2] = target: T1, E. coli aminoacyl tRNA transferase (AaT); experiment: AaT-catalyzed α-casein N-terminal modification (Edman degradation, tryptic digest MALDI MS); conditions: double addition of donor
# Experimental: HEPES pH 8.0, 1.50 mM KO, 10 mM MgCl2) and AaT (0.05 mg). The reaction mixture was incubated at 37° C. for 12 h, AaT was removed using Ni^2+ resin (Ni-NTA Superflow, Qiagen), and then buffer exchanged four times into phosphate buffered saline (PBS, 12 mM NaH2PO4, 50 mM NaCl, 4.7 mM KCl, pH 8.0) by Spectra/Por 1 dialysis tubing (Spectrum Laboratories; Rancho Dominguez, Calif.). Azf-modified α-casein was used directly after buffer exchange into PBS. Aliquots (1 nmol) of α-casein were diluted into PBS (22 μL) containing either fluorescein-alkyne (FlAlk, 91 μM) or propargylamine (Alk, 227 μM) for copper-catalyzed azide-alkyne cycloaddition (CuAAC). […] Reactions were boiled with gel loading dye LDS (Pierce; Rockford, Ill.) for 10 min at 95° C. and analyzed by SDS-PAGE. Fluorescence images were obtained with a Geldoc (BioRAD; Hercules, Calif.) using an excitation wavelength of 302 nm for detection of fluorescein. α-Casein was also directly visualized by Coomassie Brilliant Blue staining.
# α-Casein-Azf (33 or α-casein (33 μg) was digested with sequencing grade modified Trypsin (0.6 μg) in 27 μL of 25 mM ammonium bicarbonate pH 7.5 (freshly prepared). Digestions were carried out at 37° C. for 14 h. Trypsin digest aliquots (1 μL) were combined with α-cyano-4-hydroxycinnamic acid (1 μL of a saturated solution in 1:1 H2O/CH3CN with 1% TFA) and analyzed by MALDI MS. […]
# [3] = target: E. coli aminoacyl transferase (AaT) (Escherichia coli, UniProt P0A8P1); experiment: LysAlaAcm ligation assay: AaT-catalyzed transfer from aminoacyl adenosine donor to LysAlaAcm, HPLC at 325 nm; design: made in house; host or cells: E. coli BL21-Gold (DE3), plasmid pEG6, Ni-NTA purified; conditions: single addition of 1 mM donor, 100 μM LysAlaAcm, 2.26 μM AaT, 37° C., 4 h, no additive
# Experimental: Each ligation reaction, 125 μL total volume, contained the following reagents: aminoacyl adenosine donor (1 mM), recombinant His10-tagged E. coli aminoacyl transferase (2.26 μM), and LysAlaAcm (100 μM) in the AaT Ligation Buffer (50 mM HEPES pH 8.0, 150 mm KCl, 10 mM MgCl2). The reaction mixtures were incubated at 37° C. for four hours and quenched with 1% acetic acid. The proteins were extracted from the reactions via acetone precipitation. The reactions were precipitated using 4× reaction volume of acetone and cooled at −20° C. for 1 h. Next, the reactions were centrifuged at 13,200 rpm at 4° C. for 20 min to separate the reaction from precipitated protein. The supernatant was transferred to fresh 1.5 mL centrifuge tubes and allowed for acetone evaporation overnight at room temperature. After acetone evaporation, the supernatant was dried in a Speedvac (Savant, Thermo Scientific, Fisher Inc.) for 30 min to remove residual acetone. The resulting reaction volume was dissolved up to 1.2 mL using Milli-Q water and analyzed by HPLC (gradient below) to determine ligation yield by integration of separated peak intensities monitored at 325 nm. Collected HPLC fractions were characterized through MALDI MS analysis. […] Reactions using Phe-pdCpA as donor were carried out in an identical fashion (Ellman, et al., 1991, Methods Enzymol. 202:301-336).
# All HPLC analyses of LysAlaAcm ligations were monitored on an Agilent HPLC using a Waters C18 column (Milford, Mass.).
# All HPLC analyses of LysAlaAcm ligations were monitored as described elsewhere herein (Gradient 1).
# The extent of transfer was evaluated by HPLC analysis of reactions with adenosyl donor, AaT or BpT, and an aminocoumarin-labeled reporter peptide (for AaT, LysAlaAcm was used as previously described by Tirrell and co-workers; for BpT, AspAlaAcm was used in an analogous fashion) (Connor et al., 2008, ChemBioChem 9:366-369). Monitoring LysAlaAcm or AspAlaAcm acylation in crude reaction mixtures using absorbance at 325 nm conveniently eliminates background due to other proteins and nucleic acids, although some non-natural amino acids such as naphthylalanine (Nap) and methoxycoumarinylalanine (Mcm) also absorb in this range.
# To evaluate substrate scope, reactions were analyzed after 4 h, when transfer should be complete for the fully enzymatic reaction with Phe tRNA synthetase (Connor et al., 2008, ChemBioChem 9:366-369).
# T1 sequence (P0A8P1 whole entry): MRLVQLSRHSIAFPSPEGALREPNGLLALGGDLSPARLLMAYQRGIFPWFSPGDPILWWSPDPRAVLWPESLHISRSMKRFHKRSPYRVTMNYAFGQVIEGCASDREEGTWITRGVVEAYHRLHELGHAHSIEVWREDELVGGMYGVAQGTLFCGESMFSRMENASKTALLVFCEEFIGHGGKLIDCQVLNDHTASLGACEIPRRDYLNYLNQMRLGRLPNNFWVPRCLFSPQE
# Sequence of E. coli aminoacyl transferase (AaT) (P0A8P1 whole entry): as above
smiles,measurement,setting,value
"[N-]=[N+]=Nc1ccc(C[C@H](N)C(=O)O[C@@H]2[C@H](O)[C@@H](CO)O[C@H]2n2cnc3c(N)ncnc32)cc1 [4c, (S)-(2R,3R,4R,5R)-2-(6-amino-9H-purin-9-yl)-4-hydroxy-5-(hydroxymethyl)tetrahydrofuran-3-yl 2-amino-3-(4-azidophenyl)propanoate]",Azf transfer to α-casein in crude E. coli lysate with unpurified AaT,[1],successful
same,"Conversion of α-casein, trypsin digest and MALDI MS",[2],Complete conversion
same,Ligated Product Yield (%),[3],78.5 ± 5.2%
